What all share (assay type): in vivo
One assay deals with Chilo suppressalis. The assay is described as follows: Test Example 10: insecticidal test against Chilo suppressalis (rice stem dip, single and combined chemicals). To be noted: after 6 days. The method, then:
Insecticidal Test Against Chilo suppressalis
A stem part was cut from a rice plant (breed: Koshihikari) cultivated in water and it was immersed in a chemical solution which has been diluted to have a pre-determined concentration. After air drying, it was put into a 9 cm polyethylene cup having a water-wetted filter paper laid on the bottom thereof, and 3-stage larvae of Chilo suppressalis were released and covered. They were left to stand in an incubator at 25° C., and the numbers of living insects and dead insects were examined after 6 days. There were two series, i.e., 5 insects per group. Meanwhile, in Table 30, when combination of two types of test chemicals are used (i.e., A and B), the combination of the two types was described as A+B, and in the concentration column (ppm), it was described as concentration of A+concentration of B.

The test system of a further assay is Pyricularia oryzae. As to the kind of experiment: whole plant or invertebrate.
A further assay deals with Callosobruchus chinensis. As to the kind of experiment: Test Example 5: insecticidal test against Callosobruchus chinensis (petri dish dry film). To be noted: 24 h, read-out: insect death ratio. The method, then:
Insecticidal Test Against Callosobruchus chinensis
1 ml of acetone solution in which a test compound had been diluted at a predetermined concentration was added dropwise to a petri dish having a diameter of 9 cm, and air dried, and then ten adults of Callosobruchus chinensis were released and the petri dish was covered. They were left to stand in an incubator at 25° C., and the numbers of living insects and dead insects were examined after 1 day. There was no series.

A further assay concerns Plutella xylostella. The assay is described as follows: Test Example 4: insecticidal test against Plutella xylostella (cabbage leaf dip). The following applies: foliar, 144 h, read-out: insect death ratio. The protocol: Insecticidal Test Against Plutella xylostella
A piece of a cabbage leaf was immersed for 30 seconds in a chemical solution in which the test compound had been added at a predetermined concentration, and air dried, and then put into a 7 cm polyethylene cup having a filter paper laid on the bottom thereof, and five 3-stage larvae of Plutella xylostella were released. They were left to stand in an incubator at 25° C., and the numbers of living insects and dead insects were examined after 6 days. There was no series.

Where [1] appears, read: Chilo suppressalis, 144 h, 1 ppm, read-out: Insect death ratio (%).
[2] abbreviates: Chilo suppressalis, 144 h, read-out: Insect death ratio (%).
The mark [3] stands for this setting: Pyricularia oryzae, 168 h, read-out: Rice blast control value.
[4] abbreviates: concentration of 1000 ppm, cabbage leaf dip, 3-stage larvae, 25° C., after 6 days.

Counter-ions that a name gives are not always drawn. Like-named read-outs stand apart in the source and are kept apart here. Where only a bound is given, the exact number is not on record here.

From patent publication US9963451B2, “Fused ring pyrimidine compound and pest control agent containing the same” (Mitsui Chemicals Agro, Inc., priority 2013, dated 2018) come the findings set out here.

Regarding `CN(C)C(CSC(N)=O)CSC(N)=O` [Cartap, Cartap hydrochloride], the pest or weed control at 300 ppm in the assay with Chilo suppressalis (Chilo suppressalis, 144 h, 300 ppm, read-out: Insect death ratio (%)) was determined as 90%. With `CNC(=O)c1cc(Cl)cc(C)c1NC(=O)c1cc(Br)nn1-c1ncccc1Cl` [Chlorantraniliprole, chlorantraniliprole], the pest or weed control at 1 ppm in the assay with Chilo suppressalis (setting [1]) came out at 80%. `CNC(=O)c1cc(C#N)cc(C)c1NC(=O)c1cc(Br)nn1-c1ncccc1Cl` [Cyantraniliprole, cyantraniliprole]: the pest or weed control at 1 ppm in the assay on Chilo suppressalis (setting [1]) was 80%. For `CN(C(=O)c1ccccc1)c1cccc(C(=O)Nc2c(Br)cc(C(F)(C(F)(F)F)C(F)(F)F)cc2C(F)(F)F)c1F` [DD-1], the pest or weed control at 0.1 ppm with Chilo suppressalis (setting [2]) was determined as 90%.

For the compound `CN(C(=O)c1ccc(F)cc1)c1cccc(C(=O)Nc2c(I)cc(C(F)(C(F)(F)F)C(F)(F)F)cc2C(F)(F)F)c1F` [DD-2], the pest or weed control at 0.1 ppm in the assay with Chilo suppressalis (setting [2]) turned out to be 100%. Consider `O=C(Nc1c(I)cc(C(F)(C(F)(F)F)C(F)(F)F)cc1C(F)(F)F)c1cccc(NC(=O)c2cccnc2Cl)c1` [DD-3], for which the pest or weed control at 0.1 ppm in the assay with Chilo suppressalis (setting [2]) was determined as 100%. Regarding `C[C@@H](NC(=O)C(C#N)C(C)(C)C)c1ccc(Cl)cc1Cl` (stereo partly shown) [Diclocymet, diclocymet], the pest or weed control at 1.5 ppm in the assay on Pyricularia oryzae (setting [3]) was 95%. As for `CC1(C)N=C(c2cnc3ccccc3c2)c2ccccc2C1(F)F` [EE-1], in the assay on Pyricularia oryzae (setting [3]), the pest or weed control at 50 ppm stood at 97%.

As to `CC1(C)N=C(c2cnc3ccccc3c2)c2cccc(F)c2C1(C)C` [EE-2], the pest or weed control at 50 ppm in the assay on Pyricularia oryzae (setting [3]) was found to be 95%. For the compound `CC1(C)N=C(c2cnc3ccccc3c2)c2cccc(F)c2C1(F)F` [EE-3], the pest or weed control at 50 ppm in the assay with Pyricularia oryzae (setting [3]) was found to be 97%. For `Cc1cc(C(F)(C(F)(F)F)C(F)(F)F)ccc1NC(=O)c1cccc(I)c1C(=O)NC(C)(C)CS(C)(=O)=O` [Flubendiamide, flubendiamide], the pest or weed control at 1 ppm in the assay on Chilo suppressalis (setting [1]) is 80%. Turning to `CC(C)OC(=O)C(C(=O)OC(C)C)=C1SCCS1` [Isoprothiolane, isoprothiolane], the pest or weed control at 6 ppm in the assay with Pyricularia oryzae (setting [3]) worked out at 97%. As for `N#Cc1ccccc1NC(=O)c1snc(Cl)c1Cl` [Isotianil, isotianil], the “Rice blast control value” with Pyricularia oryzae (1 ppm, spots counted 7 days later) is 97. Regarding `CNC(=O)/C(=N/OC)c1ccccc1CO/N=C(C)/C(=N/OC)C(/C)=N/OC` [Orysastrobin, orysastrobin], the “Rice blast control value” in the assay with Pyricularia oryzae (3.5 ppm, spots counted 7 days later) came to 95.

For `C=CCOC1=NS(=O)(=O)c2ccccc21` [Probenazole, probenazole], the pest or weed control at 12 ppm in the assay with Pyricularia oryzae (setting [3]) amounted to 96%. In the case of `CC(=O)Oc1c(C)c(C)nc2c(F)cc(C(C)(C)C)cc12` [Tebufloquin, tebufloquin], in the assay on Pyricularia oryzae (100 ppm, spots counted 7 days later), the “Rice blast control value” worked out at 98.

Regarding `Cc1ccc(C(=O)NC[C@@H](NC(=O)OCC(F)(F)F)C(C)C)cc1` [Tolprocarb, tolprocarb], the “Rice blast control value” with Pyricularia oryzae (in vivo) was determined as 97.

As to `Cc1cccc2sc3nncn3c12` [Tricyclazole, tricyclazole], in the assay on Pyricularia oryzae (setting [3]), the pest or weed control at 2 ppm was 98% and the pest or weed control at 200 ppm stood at 97%. For `Cc1cc(=O)n2nc(S(C)(=O)=O)nc2n1Cc1ccc(Cl)nc1` [compound 10, 4-((6-chloropyridin-3-yl)methyl)-5-methyl-2-(methylsulfonyl)-[1,2,4]triazolo[1,5-a]pyrimidin-7(4H)-one], the pest or weed control at 1000 ppm with Callosobruchus chinensis is no less than 70%. As for `Cc1cc(=O)n2nc(SCc3cccc(C(F)(F)F)c3)nc2n1Cc1ccc(Cl)nc1` [compound 16], in the assay on Plutella xylostella (setting [4]), the pest or weed control at 1000 ppm was no less than 70%. As for `Cc1cc(=O)n2nc(SCCC(F)(F)F)nc2n1Cc1ccc(Cl)nc1` [compound 22], in the assay on Plutella xylostella, the pest or weed control at 1000 ppm was no less than 70%. Same read-out and setting: the same measure for `Cc1cc(=O)n2nc(SCCCC(F)(F)F)nc2n1Cc1ccc(Cl)nc1` [compound 23]: no less than 70%; for `CSc1nc2n(Cc3ccc(Cl)nc3)c(C)cc(=S)n2n1` [compound 24, 4-((6-chloropyridin-3-yl)methyl)-5-methyl-2-(methylthio)-[1,2,4]triazolo[1,5-a]pyrimidin-7(4H)-thione]: no less than 70%; for `CCc1c(C)n(Cc2ccc(Cl)nc2)c2nc(SC)nn2c1=O` [compound 25]: no less than 70%.

Take `Cc1cc(=O)n2nc([S+](C)[O-])nc2n1Cc1ccc(Cl)nc1` (stereo not shown) [compound 26]: in the assay on Callosobruchus chinensis, the pest or weed control at 1000 ppm was no less than 70%. Take `Cc1cc(=O)n2nc(-c3ccccc3F)nc2n1Cc1ccc(Cl)nc1` [compound 28]: the pest or weed control at 1000 ppm in the assay on Plutella xylostella is no less than 70%. The same measure, in the same setting: the same measure for `CCSc1nc2n(Cc3ccc(Cl)nc3)c(C)cc(=O)n2n1` [compound 29]: no less than 70%. Consider `COc1nc2n(Cc3ccc(Cl)nc3)c(C)cc(=O)n2n1` [compound 45, 4-((6-chloropyridin-3-yl)methyl)-2-methoxy-5-methyl-[1,2,4]triazolo[1,5-a]pyrimidin-7(4H)-one], for which the pest or weed control at 1000 ppm in the assay on Callosobruchus chinensis was no less than 70%.

Consider `Cc1cc(=O)n2nc(OCC(F)(F)F)nc2n1Cc1ccc(Cl)nc1` [compound 46], for which the pest or weed control at 1000 ppm with Callosobruchus chinensis is no less than 70%. Turning to `Cc1cc(=O)n2nc(C(C)(F)F)nc2n1Cc1ccc(Cl)nc1` [compound 59], the pest or weed control at 1000 ppm in the assay with Callosobruchus chinensis is no less than 70%. For the compound `Cc1cc(=O)n2nc(S(C)(=O)=NC#N)nc2n1Cc1ccc(Cl)nc1` (stereo not shown) [compound 76], in the assay with Callosobruchus chinensis, the pest or weed control at 1000 ppm is no less than 70%.

For the compound `Cc1cc(=O)n2nc(-n3cccn3)nc2n1Cc1ccc(Cl)nc1` [compound 80], the pest or weed control at 1000 ppm in the assay on Callosobruchus chinensis is no less than 70%. For the compound `Cc1cc(=O)n2nc(OC(C)c3ccc(C(F)(F)F)cc3)nc2n1Cc1ccc(Cl)nc1` (stereo not shown) [compound 106], the pest or weed control at 1000 ppm in the assay with Plutella xylostella (setting [4]) is no less than 70%.

Take `CSc1nc2n(Cc3ccc(Cl)nc3)c(C)c/c(=N\O)n2n1` [compound 121, 4-((6-chloropyridin-3-yl)methyl)-5-methyl-2-(methylthio)-[1,2,4]triazolo[1,5-a]pyrimidin-7(4H)-oneoxime]: in the assay with Callosobruchus chinensis, the pest or weed control at 1000 ppm is no less than 70%. On to `Cc1cc(=O)n2nc([S+]([O-])CC(F)(F)F)nc2n1Cc1ccc(Cl)nc1` (stereo not shown) [compound 189], for which, in the assay with Plutella xylostella, the pest or weed control at 1000 ppm is no less than 70%. As for `Cc1cc(=O)n2nc(S(=O)(=O)CC(F)(F)F)nc2n1Cc1ccc(Cl)nc1` [compound 190], in the assay with Callosobruchus chinensis, the pest or weed control at 1000 ppm is no less than 70%. For `CSc1cc2n(Cc3ccc(Cl)nc3)c(C)c(C)c(=O)n2n1` [compound 236], in the assay on Plutella xylostella, the pest or weed control at 1000 ppm was no less than 70%. With `CSc1cc2n(Cc3ccc(Cl)nc3)c(C)c(F)c(=O)n2n1` [compound 237], the pest or weed control at 1000 ppm in the assay with Plutella xylostella is no less than 70%. With `Cc1cc(=O)n2nc(C(F)F)cc2n1Cc1ccc(Cl)nc1` [compound 241], in the assay with Plutella xylostella, the pest or weed control at 1000 ppm is no less than 70%. Consider `CCSc1cc2n(Cc3ccc(Cl)nc3)c(C)cc(=O)n2n1` [compound 243], for which the pest or weed control at 1000 ppm in the assay on Plutella xylostella is no less than 70%. On to `CC[S+]([O-])c1cc2n(Cc3ccc(Cl)nc3)c(C)cc(=O)n2n1` (stereo not shown) [compound 244], for which, in the assay with Callosobruchus chinensis, the pest or weed control at 1000 ppm is no less than 70%.

In the case of `Cc1cc(=O)n2nc(C(F)(F)F)cc2n1Cc1cnc(Cl)cc1Cl` [compound 248], in the assay on Callosobruchus chinensis, the pest or weed control at 1000 ppm was no less than 70%. Take `CCSc1cc2n(Cc3cnc(Cl)c(F)c3)c(C)cc(=O)n2n1` [compound 252]: in the assay with Callosobruchus chinensis, the pest or weed control at 1000 ppm is no less than 70%. In the case of `Cc1cc(=O)n2nc(C(F)(F)F)cc2n1Cc1cnc(Cl)c(F)c1` [compound 253], in the assay with Callosobruchus chinensis, the pest or weed control at 1000 ppm is no less than 70%. As to `CSc1cc2n(Cc3cnc(Cl)nc3)c(C)cc(=O)n2n1` [compound 299], the pest or weed control at 1000 ppm in the assay with Callosobruchus chinensis is no less than 70%.

As to `CSc1nc2n(Cc3cnc(Cl)c(F)c3)c(C)cc(=O)n2n1` [compound 306], the pest or weed control at 1000 ppm with Callosobruchus chinensis is no less than 70%.

For `CSc1cc2n(Cc3cnc(Cl)c(F)c3)c(C)cc(=O)n2n1` [compound 307], the pest or weed control at 1000 ppm in the assay with Callosobruchus chinensis is no less than 70%. For the compound spinetoram, the “Insect death ratio (%)” value in the assay on Chilo suppressalis (1 ppm) is listed as 100%.
